For one test, the target named is T1, human CYP11B2 (Homo sapiens, UniProt P19099).
T1 construct: expressed in transfected cells
T1 sequence (P19099 25-503): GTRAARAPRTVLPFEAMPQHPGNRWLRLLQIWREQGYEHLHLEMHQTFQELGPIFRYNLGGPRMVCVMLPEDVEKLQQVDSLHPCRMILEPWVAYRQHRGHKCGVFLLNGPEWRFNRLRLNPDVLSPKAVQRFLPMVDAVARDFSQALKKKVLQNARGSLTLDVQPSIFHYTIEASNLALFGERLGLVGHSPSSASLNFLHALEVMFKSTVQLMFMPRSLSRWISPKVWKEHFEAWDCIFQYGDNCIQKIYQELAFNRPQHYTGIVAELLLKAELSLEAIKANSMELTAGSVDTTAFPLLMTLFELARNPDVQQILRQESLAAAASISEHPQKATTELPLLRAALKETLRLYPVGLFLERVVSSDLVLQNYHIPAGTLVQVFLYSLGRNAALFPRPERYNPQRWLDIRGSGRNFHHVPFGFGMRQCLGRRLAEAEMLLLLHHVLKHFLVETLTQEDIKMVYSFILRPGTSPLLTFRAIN
As to the kind of experiment: G-402 cellular enzyme assay, human CYP11B2 (aldosterone release, HTRF). The class given is cell-based. The following applies: G-402 cells, 1 μM Deoxycorticosterone. A digest of the protocol: (§1)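 Inhibition of steroid release was taken as enzyme inhibition. CYP11B1 assays used 1 μM deoxycortisol with cortisol detection, CYP11B2 assays 1 μM deoxycorticosterone with aldosterone detection, both by HTRF after 16 h in stable G-402 cells; EC50 from least-squares MMF fit.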

The target in a further test is T2, human CYP11B1 (Homo sapiens, UniProt P15538).
T2 construct: expressed in transfected cells
T2 sequence (P15538 25-503): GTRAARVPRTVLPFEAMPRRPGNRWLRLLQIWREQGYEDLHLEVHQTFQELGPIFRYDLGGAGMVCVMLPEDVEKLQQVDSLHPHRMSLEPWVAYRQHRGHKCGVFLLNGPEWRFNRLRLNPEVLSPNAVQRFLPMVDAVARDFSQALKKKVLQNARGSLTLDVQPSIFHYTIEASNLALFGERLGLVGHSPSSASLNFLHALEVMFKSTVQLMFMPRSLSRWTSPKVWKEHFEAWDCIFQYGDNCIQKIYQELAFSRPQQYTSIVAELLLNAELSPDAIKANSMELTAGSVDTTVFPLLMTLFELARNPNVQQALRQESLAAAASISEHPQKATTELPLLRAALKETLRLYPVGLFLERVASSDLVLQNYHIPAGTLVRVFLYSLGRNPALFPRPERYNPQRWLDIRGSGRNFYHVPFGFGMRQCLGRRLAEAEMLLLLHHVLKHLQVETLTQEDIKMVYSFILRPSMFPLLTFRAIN
As to the kind of experiment: G-402 cellular enzyme assay, human CYP11B1 (cortisol release, HTRF). The class given is cell-based. The following applies: G-402 cells, 1 μM Deoxycortisol. In outline:
as §1
On the technique in general: TR-FRET usually uses a lanthanide donor and a delayed reading to cut background.

Regarding `O=C1CCCCN1Cc1cncc(N2Cc3cc(Cl)ccc3C2=O)c1` [Example 114, 5-Chloro-2-[5-(2-oxo-piperidin-1-ylmethyl)-pyridin-3-yl]-2,3-dihydro-isoindol-1-one], the concentration giving a half-maximal response (EC50) on human CYP11B2 was 424 nM; at human CYP11B1, 12800 nM.
The like results for `O=C1c2ccc(Cl)cc2CCN1c1cncc(CO)c1` [Example 3, 6-Chloro-2-(5-hydroxymethyl-pyridin-3-yl)-3,4-dihydro-2H-isoquinolin-1-one] were, in that order, 96.5 nM and 3720 nM.
`CCS(=O)(=O)Nc1cncc(N2CCc3cc(Cl)ccc3C2=O)c1` [Example 218, Ethanesulfonic acid [5-(6-chloro-1-oxo-3,4-dihydro-1H-isoquinolin-2-yl)-pyridin-3-yl]-amide]: the values for the EC50 on human CYP11B2 and on human CYP11B1 were 1550 nM and 14300 nM, respectively.
The like results for `O=C1c2ccc(Cl)cc2CCN1c1cncc(COCC2CCCO2)c1` (stereo not drawn) [Example 201, 6-Chloro-2-[5-(tetrahydro-furan-2-ylmethoxymethyl)-pyridin-3-yl]-3,4-dihydro-2H-isoquinolin-1-one] were, in that order, 30.4 nM and 293 nM.
The like results for `CC1(C)c2nc(Cl)ccc2C(=O)N1c1cncc(OC(F)F)c1` [Example 293, 2-Chloro-6-(5-difluoromethoxy-pyridin-3-yl)-7,7-dimethyl-6,7-dihydro-pyrrolo[3,4-b]pyridin-5-one] were, in that order, 16.4 nM and 285 nM.
The like results for `CC(=O)N1CCCC(c2cncc(N3C(=O)c4ccc(Cl)cc4C3(C)C)n2)C1` (stereo not drawn) [Example 462, 2-[6-(1-Acetyl-piperidin-3-yl)-pyrazin-2-yl]-5-chloro-3,3-dimethyl-2,3-dihydro-isoindol-1-one] were, in that order, 32.6 nM and 720 nM.
For `CCS(=O)(=O)N(C)Cc1cncc(N2C(=O)c3ccc(Cl)cc3C2(C)C)c1` [Example 395, Ethanesulfonic acid [5-(6-chloro-1,1-dimethyl-3-oxo-1,3-dihydro-isoindol-2-yl)-pyridin-3-ylmethyl]-methyl-amide], the EC50 on human CYP11B2 amounted to 8 nM; on human CYP11B1, 679 nM.
The like results for `O=C1CCCN1Cc1cncc(N2CCc3cc(Cl)ccc3C2=O)c1` [Example 155, 6-Chloro-2-[5-(2-oxo-pyrrolidin-1-ylmethyl)-pyridin-3-yl]-3,4-dihydro-2H-isoquinolin-1-one] were, in that order, 132 nM and 4090 nM.
The like results for `O=C1c2ccc(Cl)cc2C(C2CC2)N1c1cncc(OC(F)F)c1` (stereo not drawn) [Example 302, 5-Chloro-3-cyclopropyl-2-(5-difluoromethoxy-pyridin-3-yl)-2,3-dihydro-isoindol-1-one] were, in that order, 93.2 nM and 5190 nM.
The like results for `Cn1ccnc1-c1cncc(N2CCc3cc(Cl)ccc3C2=O)c1` [Example 244, 6-Chloro-2-[5-(1-methyl-1H-imidazol-2-yl)-pyridin-3-yl]-3,4-dihydro-2H-isoquinolin-1-one] were, in that order, 1860 nM and 4690 nM.
Consider `CCC(=O)N1CCN(c2cncc(N3C(=O)c4ccc(Cl)cc4C3(C)C)c2)CC1` [Example 456, 5-Chloro-3,3-dimethyl-2-[5-(4-propionyl-piperazin-1-yl)-pyridin-3-yl]-2,3-dihydro-isoindol-1-one], for which the EC50 was found to be 1.2 nM on human CYP11B2 and 106 nM at human CYP11B1.
The like results for `CC1(C)c2cc(Cl)ccc2C(=O)N1c1cncc(OC2CN(S(C)(=O)=O)C2)c1` [Example 452, 5-Chloro-2-[5-(1-methanesulfonyl-azetidin-3-yloxy)-pyridin-3-yl]-3,3-dimethyl-2,3-dihydro-isoindol-1-one] were, in that order, 26.8 nM and 1740 nM.
The like results for `CCC(=O)NC1CCCc2c1cncc2N1Cc2cc(Cl)ccc2C1=O` (single isomer, unassigned) [Example 314, N-[(R or S)-4-(5-Chloro-1-oxo-1,3-dihydro-isoindol-2-yl)-5,6,7,8-tetrahydro-isoquinolin-8-yl]-propionamide] were, in that order, 28.2 nM and 5230 nM.
The like results for `CC(C)N1CCN(Cc2cncc(N3C(=O)c4ccc(Cl)cc4C3(C)C)c2)C1=O` [Example 416, 5-Chloro-2-[5-(3-isopropyl-2-oxo-imidazolidin-1-ylmethyl)-pyridin-3-yl]-3,3-dimethyl-2,3-dihydro-isoindol-1-one] were, in that order, 6 nM and 723 nM.
Take `O=C1c2ccc(Cl)cc2CCN1c1cnccc1Cl` [Example 6, 6-Chloro-2-(4-chloro-pyridin-3-yl)-3,4-dihydro-2H-isoquinolin-1-one]: the half-maximal effective concentration (EC50) amounted to 30 nM at human CYP11B2 and 1210 nM on human CYP11B1.
The like results for `CS(=O)(=O)c1ccc(Cc2cncc(N3CCc4cc(Cl)ccc4C3=O)c2)cc1` [Example 205, 6-Chloro-2-[5-(4-methanesulfonyl-benzyl)-pyridin-3-yl]-3,4-dihydro-2H-isoquinolin-1-one] were, in that order, 0.5 nM and 0.6 nM.
The like results for `CS(=O)(=O)NC1CCCc2c1cncc2N1CCc2cc(Cl)ccc2C1=O` (single isomer, unassigned) [Example 325, N-((R or S)-6-Chloro-1-oxo-3,4,5′,6′,7′,8′-hexahydro-1H-[2,4′]biisoquinolinyl-8′-yl)-methanesulfonamide] were, in that order, 59.2 nM and 4490 nM.
The like results for `CC1(C)c2cc(Cl)ccc2C(=O)N1c1cncc(CNC(=O)c2cccnc2)c1` [Example 438, N-[5-(6-Chloro-1,1-dimethyl-3-oxo-1,3-dihydro-isoindol-2-yl)-pyridin-3-ylmethyl]-nicotinamide] were, in that order, 3.8 nM and 202 nM.
Regarding `Cn1ncc(Cl)c1-c1cncc(N2C(=O)c3ccc(Cl)cc3C2(C)C)c1` [Example 427, 5-Chloro-2-[5-(4-chloro-2-methyl-2H-pyrazol-3-yl)-pyridin-3-yl]-3,3-dimethyl-2,3-dihydro-isoindol-1-one], the EC50 on human CYP11B2 turned out to be 2.4 nM; at human CYP11B1, 47.2 nM.
The like results for `CCC1c2cc(Cl)ccc2C(=O)N1c1cncc(F)c1` (stereo not drawn) [Example 126, 5-Chloro-3-ethyl-2-(5-fluoro-pyridin-3-yl)-2,3-dihydro-isoindol-1-one] were, in that order, 37.9 nM and 3560 nM.
The like results for `CCC(=O)N[C@@H]1CCc2c1cncc2N1C(=O)c2ccc(Cl)cc2[C@H]1C` (single isomer, unassigned) [Example 376, N-[(R or S)-4-((R or S)-5-Chloro-3-methyl-1-oxo-1,3-dihydro-isoindol-2-yl)-6,7-dihydro-5H-[2]pyrindin-7-yl]-propionamide] were, in that order, 26 nM and 7960 nM.
Consider `O=C1c2ccc(Cl)cc2C(Cc2ccccc2)N1c1cccnc1` (stereo not drawn) [Example 124, 3-Benzyl-5-chloro-2-pyridin-3-yl-2,3-dihydro-isoindol-1-one], for which the EC50 on human CYP11B2 worked out at 1070 nM; on human CYP11B1, 225 nM.
The like results for `Cn1ncc2c(N3Cc4cc(Cl)ccc4C3=O)cncc21` [Example 116, 5-Chloro-2-(1-methyl-1H-pyrazolo[3,4-c]pyridin-4-yl)-2,3-dihydro-isoindol-1-one] were, in that order, 132 nM and 5130 nM.
The like results for `CCS(=O)(=O)N1CCN(c2cncc(N3C(=O)c4ccc(Cl)cc4C3(C)C)c2)CC1` [Example 458, 5-Chloro-2-[5-(4-ethanesulfonyl-piperazin-1-yl)-pyridin-3-yl]-3,3-dimethyl-2,3-dihydroisoindol-1-one] were, in that order, 1.7 nM and 351 nM.
With `O=C1c2ccc(Cl)cc2CCN1c1cncc(CN2CCN(CCO)CC2)c1` [Example 165, 6-Chloro-2-{5-[4-(2-hydroxy-ethyl)-piperazin-1-ylmethyl]-pyridin-3-yl}-3,4-dihydro-2H-isoquinolin-1-one], the EC50 at human CYP11B2 is 3.5 nM; at human CYP11B1, 60.4 nM.
The like results for `CC1Cc2cc(Cl)ccc2C(=O)N1c1cncc(CO)c1` (stereo not drawn) [Example 86, 6-Chloro-2-(5-hydroxymethyl-pyridin-3-yl)-3-methyl-3,4-dihydro-2H-isoquinolin-1-one] were, in that order, 377 nM and 7770 nM.
The like results for `CC(=O)N1CCC(Oc2cncc(N3C(=O)c4ccc(Cl)cc4C3(C)C)c2)CC1` [Example 449, 2-[5-(1-Acetyl-piperidin-4-yloxy)-pyridin-3-yl]-5-chloro-3,3-dimethyl-2,3-dihydro-isoindol-1-one] were, in that order, 2.8 nM and 235 nM.

The term EC50 denotes the concentration needed to bring the measured effect to its halfway point. Read a high EC50 as weaker potency.
